Assays:
Format in all cases: biochemical
PI3kγ = PI3kγ (Homo sapiens, UniProt P48736); assay: Fluorescent (HTRF) determination of PI3 kinase enzyme activity, PI3Kγ; conditions: for inhibition at 0.3 µM: 300 nM (Examples 1-59)
Description: (§1) Assay 1: Fluorescent Determination of PI3Kinase Kinase Enzyme Activity
(§2) Phosphoinositide 3 kinases (PI3K) belong to a class of lipid kinases that play a critical role in the regulation of several key cellular processes. The PI3K are capable of phosphorylating the 3-hydroxy position of phosphoinositols thereby generating second messengers involved in downstream signalling events. The homogenous time resolved fluorescence (HTRF) assay allows detection of 3,4,5-triphosphate (PIP3) formed as a result of phosphorylation of phosphotidylinositol 4,5-biphosphate (PIP2) by PI3K isoforms such as α, β, γ or δ. PI3K isoform activity for a, p, y or 8 was determined using a PI3K human HTRF™ Assay Kit (Millipore, Billerica, Mass.) with modifications. All incubations were carried out at room temperature. Briefly, 0.5 μl of 40× inhibitor (in 100% DMSO) or 100% DMSO were added to each well of a 384-well black plate (Greiner Bio-One, Monroe, N.C.) containing 14.5 μl IX reaction buffer /PIP2 (10 mM MgCl2, 5 mM DTT, 1.38 μM PIP2) mix with or without enzyme and incubated for 10 min. After the initial incubation, 5 μl/well of 400 μM ATP was added and incubated for an additional 30 minutes. Reaction was terminated by adding 5 μl/well stop solution (Millipore, Billerica, Mass.). Five microliters of detection mix (Millipore, Billerica, Mass.) were then added to each well and was incubated for 6-18 h in the dark. HRTF ratio was measured on a microplate reader (BMG Labtech., Germany) at an excitation wavelength of 337 nm and emission wavelengths of 665 and 620 nm with an integration time of 400 μsec.
(§3) Data were analyzed using Graphpad Prism (Graphpad software; San Diego Calif.) for IC50 determination. Examples 1-59 were tested at 1 uM for Pi3kα & Pi3k β and at 0.3 uM for γ and δ. Examples 60-137 were tested at 1 uM for Pi3kα & Pi3k β and at 0.1 uM for γ and δ. Percent inhibition was calculated based on the values for the blank and enzyme controls. The results are as provided in Table 2 (wherein D=0 to 25%; C=>25 to 50%; B=>50 to 75%; A=>75 to 100%; +++++=≤50 nM; ++++=>50 to ≤100 nM; +++=>100 to ≤300 nM; ++=>300 to ≤500 nM; +=>500 nM)

PI3kα = PI3kα (Homo sapiens, UniProt P42336); assay: Fluorescent (HTRF) determination of PI3 kinase enzyme activity, PI3Kα; conditions: 1 uM
Sequence of PI3kα (P42336 whole entry): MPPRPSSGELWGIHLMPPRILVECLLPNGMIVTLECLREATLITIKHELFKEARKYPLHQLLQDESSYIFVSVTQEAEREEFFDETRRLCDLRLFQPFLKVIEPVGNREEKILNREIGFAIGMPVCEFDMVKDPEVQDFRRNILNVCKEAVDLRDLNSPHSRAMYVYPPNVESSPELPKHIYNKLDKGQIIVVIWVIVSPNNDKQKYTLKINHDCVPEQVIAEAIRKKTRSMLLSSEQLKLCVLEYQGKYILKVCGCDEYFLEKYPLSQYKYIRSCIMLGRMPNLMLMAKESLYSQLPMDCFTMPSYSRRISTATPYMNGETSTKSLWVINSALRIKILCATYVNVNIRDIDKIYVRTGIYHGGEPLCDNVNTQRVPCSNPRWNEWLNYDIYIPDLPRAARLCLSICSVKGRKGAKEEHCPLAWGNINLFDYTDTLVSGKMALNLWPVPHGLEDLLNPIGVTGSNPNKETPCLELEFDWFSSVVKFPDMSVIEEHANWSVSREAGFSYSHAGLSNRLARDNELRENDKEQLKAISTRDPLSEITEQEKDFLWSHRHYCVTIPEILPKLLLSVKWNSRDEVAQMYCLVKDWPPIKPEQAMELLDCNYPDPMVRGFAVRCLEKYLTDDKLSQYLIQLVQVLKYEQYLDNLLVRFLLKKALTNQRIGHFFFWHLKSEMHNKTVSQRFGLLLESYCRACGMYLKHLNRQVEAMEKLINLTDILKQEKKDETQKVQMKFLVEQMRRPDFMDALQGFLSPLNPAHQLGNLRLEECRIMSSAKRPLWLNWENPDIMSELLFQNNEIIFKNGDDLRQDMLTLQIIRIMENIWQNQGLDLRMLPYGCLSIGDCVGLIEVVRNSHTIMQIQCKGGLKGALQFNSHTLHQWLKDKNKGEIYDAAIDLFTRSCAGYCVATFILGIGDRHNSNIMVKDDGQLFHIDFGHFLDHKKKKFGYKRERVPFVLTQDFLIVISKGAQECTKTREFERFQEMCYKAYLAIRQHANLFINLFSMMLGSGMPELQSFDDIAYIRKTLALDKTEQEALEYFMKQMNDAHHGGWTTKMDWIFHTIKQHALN
Sequence of PI3kα (P27986 whole entry partner): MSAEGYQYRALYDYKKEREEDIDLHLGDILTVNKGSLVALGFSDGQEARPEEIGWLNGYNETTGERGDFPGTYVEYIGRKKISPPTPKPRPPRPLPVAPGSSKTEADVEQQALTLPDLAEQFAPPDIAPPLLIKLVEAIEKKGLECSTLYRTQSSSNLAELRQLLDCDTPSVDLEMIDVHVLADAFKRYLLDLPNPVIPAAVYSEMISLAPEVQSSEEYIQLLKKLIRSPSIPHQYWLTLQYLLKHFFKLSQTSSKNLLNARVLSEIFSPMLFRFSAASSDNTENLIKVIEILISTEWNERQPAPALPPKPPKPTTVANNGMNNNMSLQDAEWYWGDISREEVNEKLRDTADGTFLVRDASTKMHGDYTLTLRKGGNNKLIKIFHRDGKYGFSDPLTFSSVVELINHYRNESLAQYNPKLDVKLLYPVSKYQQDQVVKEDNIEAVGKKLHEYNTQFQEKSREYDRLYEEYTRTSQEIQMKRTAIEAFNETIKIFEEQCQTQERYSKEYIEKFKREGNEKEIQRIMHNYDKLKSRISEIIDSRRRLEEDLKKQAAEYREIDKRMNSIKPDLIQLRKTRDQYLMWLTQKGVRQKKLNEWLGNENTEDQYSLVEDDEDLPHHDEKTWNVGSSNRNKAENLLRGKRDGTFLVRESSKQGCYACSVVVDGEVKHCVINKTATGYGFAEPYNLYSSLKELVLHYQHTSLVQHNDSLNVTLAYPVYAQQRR
Description: as §1, §2, §3

PI3kδ = PI3kδ (Homo sapiens, UniProt O00329); assay: Fluorescent (HTRF) determination of PI3 kinase enzyme activity, PI3Kδ; conditions: for inhibition at 0.3 µM: 300 nM (Examples 1-59)
Sequence of PI3kδ (O00329 whole entry): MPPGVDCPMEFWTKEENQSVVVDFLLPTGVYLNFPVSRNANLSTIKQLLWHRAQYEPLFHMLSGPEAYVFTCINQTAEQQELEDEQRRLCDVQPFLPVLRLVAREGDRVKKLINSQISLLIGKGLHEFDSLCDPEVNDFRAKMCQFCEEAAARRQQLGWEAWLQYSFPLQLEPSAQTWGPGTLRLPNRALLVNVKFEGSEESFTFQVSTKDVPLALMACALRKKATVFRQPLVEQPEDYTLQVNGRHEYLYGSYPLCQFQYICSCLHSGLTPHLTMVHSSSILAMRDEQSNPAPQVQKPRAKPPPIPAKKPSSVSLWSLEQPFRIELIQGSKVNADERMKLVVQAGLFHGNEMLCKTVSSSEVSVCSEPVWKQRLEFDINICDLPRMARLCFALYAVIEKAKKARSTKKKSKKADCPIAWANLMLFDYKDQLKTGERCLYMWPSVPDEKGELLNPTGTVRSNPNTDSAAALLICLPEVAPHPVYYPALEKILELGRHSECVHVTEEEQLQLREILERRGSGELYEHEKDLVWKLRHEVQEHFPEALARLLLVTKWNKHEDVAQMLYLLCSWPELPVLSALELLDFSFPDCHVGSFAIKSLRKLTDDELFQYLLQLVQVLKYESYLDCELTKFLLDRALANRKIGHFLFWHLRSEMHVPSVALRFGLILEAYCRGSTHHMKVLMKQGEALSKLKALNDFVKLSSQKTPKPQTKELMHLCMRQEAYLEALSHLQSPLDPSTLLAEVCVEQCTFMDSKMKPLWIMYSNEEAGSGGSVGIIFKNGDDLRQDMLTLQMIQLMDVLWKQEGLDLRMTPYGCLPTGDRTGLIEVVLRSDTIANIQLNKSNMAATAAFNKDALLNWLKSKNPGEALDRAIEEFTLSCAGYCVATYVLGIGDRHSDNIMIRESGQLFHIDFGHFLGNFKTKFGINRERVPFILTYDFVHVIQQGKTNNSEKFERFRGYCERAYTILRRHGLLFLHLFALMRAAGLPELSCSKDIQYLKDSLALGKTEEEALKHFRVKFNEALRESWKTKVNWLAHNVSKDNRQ
Sequence of PI3kδ (P27986 whole entry partner): as the sequence (P27986 whole entry partner) above
Description: as §1, §2, §3

PI3kβ = PI3kβ (Homo sapiens, UniProt P42338); assay: Fluorescent (HTRF) determination of PI3 kinase enzyme activity, PI3Kβ; conditions: 1 uM
Sequence of PI3kβ (P42338 whole entry): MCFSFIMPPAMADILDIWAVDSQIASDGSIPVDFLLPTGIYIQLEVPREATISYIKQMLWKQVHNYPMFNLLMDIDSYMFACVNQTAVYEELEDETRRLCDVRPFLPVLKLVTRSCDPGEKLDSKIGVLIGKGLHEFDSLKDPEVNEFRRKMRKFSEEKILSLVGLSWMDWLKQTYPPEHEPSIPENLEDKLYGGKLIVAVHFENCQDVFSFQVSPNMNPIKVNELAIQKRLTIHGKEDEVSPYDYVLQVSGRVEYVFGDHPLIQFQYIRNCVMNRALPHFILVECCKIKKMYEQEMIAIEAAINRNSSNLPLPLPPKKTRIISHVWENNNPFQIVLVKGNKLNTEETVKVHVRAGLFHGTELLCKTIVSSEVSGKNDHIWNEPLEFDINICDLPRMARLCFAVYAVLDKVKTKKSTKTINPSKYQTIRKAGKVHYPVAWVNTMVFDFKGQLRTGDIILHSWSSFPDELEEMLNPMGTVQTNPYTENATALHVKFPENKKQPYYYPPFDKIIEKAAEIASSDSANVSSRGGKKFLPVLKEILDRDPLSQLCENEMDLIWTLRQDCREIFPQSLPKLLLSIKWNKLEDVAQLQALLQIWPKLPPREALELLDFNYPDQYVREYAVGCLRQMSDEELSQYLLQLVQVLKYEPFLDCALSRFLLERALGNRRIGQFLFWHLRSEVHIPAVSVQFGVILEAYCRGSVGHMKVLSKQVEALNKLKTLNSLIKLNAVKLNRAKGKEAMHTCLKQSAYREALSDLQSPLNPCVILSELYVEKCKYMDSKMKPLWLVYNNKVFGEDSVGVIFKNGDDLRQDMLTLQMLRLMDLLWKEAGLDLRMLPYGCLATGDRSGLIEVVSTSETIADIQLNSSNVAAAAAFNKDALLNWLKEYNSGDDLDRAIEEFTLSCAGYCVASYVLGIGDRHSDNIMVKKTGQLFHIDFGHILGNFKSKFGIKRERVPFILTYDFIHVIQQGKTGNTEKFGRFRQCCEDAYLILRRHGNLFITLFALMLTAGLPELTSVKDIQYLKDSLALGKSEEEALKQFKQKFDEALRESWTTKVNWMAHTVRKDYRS
Sequence of PI3kβ (P27986 whole entry partner): as the sequence (P27986 whole entry partner) above
Description: as §1, §2, §3

Sequence of PI3kγ (P48736 whole entry): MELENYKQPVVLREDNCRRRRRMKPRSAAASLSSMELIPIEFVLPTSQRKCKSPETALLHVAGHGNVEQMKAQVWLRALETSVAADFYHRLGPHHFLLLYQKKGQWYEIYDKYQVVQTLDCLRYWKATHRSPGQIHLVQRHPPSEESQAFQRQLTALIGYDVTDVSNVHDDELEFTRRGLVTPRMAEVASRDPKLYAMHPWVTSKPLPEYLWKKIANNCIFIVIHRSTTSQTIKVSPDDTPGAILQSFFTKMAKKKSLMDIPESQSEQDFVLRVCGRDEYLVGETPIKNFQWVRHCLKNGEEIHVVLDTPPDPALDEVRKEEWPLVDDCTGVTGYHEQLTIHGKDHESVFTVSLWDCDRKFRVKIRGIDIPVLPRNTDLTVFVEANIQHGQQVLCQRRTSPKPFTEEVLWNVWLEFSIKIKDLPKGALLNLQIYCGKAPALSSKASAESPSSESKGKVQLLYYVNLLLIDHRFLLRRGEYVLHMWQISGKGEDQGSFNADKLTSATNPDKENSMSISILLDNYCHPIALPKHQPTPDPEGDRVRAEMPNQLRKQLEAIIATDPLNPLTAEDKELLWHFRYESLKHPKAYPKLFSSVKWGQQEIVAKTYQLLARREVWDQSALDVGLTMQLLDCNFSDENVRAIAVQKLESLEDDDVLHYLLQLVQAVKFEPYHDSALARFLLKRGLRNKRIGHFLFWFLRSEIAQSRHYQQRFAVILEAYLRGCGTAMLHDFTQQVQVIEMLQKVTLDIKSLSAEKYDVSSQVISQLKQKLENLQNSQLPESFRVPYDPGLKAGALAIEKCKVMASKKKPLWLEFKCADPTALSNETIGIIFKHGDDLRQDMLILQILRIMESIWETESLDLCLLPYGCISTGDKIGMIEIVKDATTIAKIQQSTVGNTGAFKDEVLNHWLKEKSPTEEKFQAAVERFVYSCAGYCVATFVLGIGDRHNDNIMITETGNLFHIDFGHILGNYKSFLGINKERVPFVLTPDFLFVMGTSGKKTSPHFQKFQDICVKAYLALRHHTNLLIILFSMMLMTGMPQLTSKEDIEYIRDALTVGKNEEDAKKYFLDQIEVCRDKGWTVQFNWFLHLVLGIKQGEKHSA

| inhibition at 0.3 µM (PI3kγ) [%] | inhibition at 1 µM (PI3kα) [%] | inhibition at 0.3 µM (PI3kδ) [%] | inhibition at 1 µM (PI3kβ) [%] | IC50 (PI3kγ) [nM] | % inhibition (PI3kα) 1 uM (PI3kα) | % inhibition (PI3kβ) 1 uM (PI3kβ) | IC50 (PI3kδ) [nM] | SMILES |
| --- | --- | --- | --- | --- | --- | --- | --- | --- |
| 75 to 100 | – | 25 to 50 | – | 100 to 300 | D (D=0 to 25%) | C (C=>25 to 50%) | – | CC(C)Oc1ccc(-c2nn(C(C)c3oc4cccc(F)c4c(=O)c3-c3ccc(F)cc3)c3ncnc(N)c23)cc1F (stereo not drawn) [Example 12, 2-(1-(4-amino-3-(3-fluoro-4-isopropoxyphenyl)-1H-pyrazolo[3,4-d]pyrimidin-1-yl)ethyl)-5-fluoro-3-(4-fluorophenyl)-4H-chromen-4-one] |
| 50 to 75 | – | 75 to 100 | – | – | D (D=0 to 25%) | D (D=0 to 25%) | ≤ 50 | CC(C)Oc1ccc(-c2nn(C(C)c3oc4cccc(F)c4c(=O)c3-c3ccccc3)c3ncnc(N)c23)cc1F (stereo not drawn) [Example 13, 2-(1-(4-amino-3-(3-fluoro-4-isopropoxyphenyl)-1H-pyrazolo[3,4-d]pyrimidin-1-yl)ethyl)-5-fluoro-3-phenyl-4H-chromen-4-one] |
| 75 to 100 | 25 to 50 | 75 to 100 | 0 to 25 | 50 to 100 | – | – | 50 to 100 | CC(c1oc2cccc(F)c2c(=O)c1-c1cccc(F)c1)n1nc(-c2cc3ccccc3o2)c2c(N)ncnc21 (stereo not drawn) [Example 14, 2-(1-(4-amino-3-(benzofuran-2-yl)-1H-pyrazolo[3,4-d]pyrimidin-1-yl)ethyl)-5-fluoro-3-(3-fluorophenyl)-4H-chromen-4-one] |
| 25 to 50 | 0 to 25 | 75 to 100 | 25 to 50 | – | – | – | – | CC(c1oc2cccc(F)c2c(=O)c1-c1cccc(F)c1)n1nc(-c2ccc(OC(F)F)c(F)c2)c2c(N)ncnc21 (stereo not drawn) [Example 17, 2-(1-(4-amino-3-(4-(difluoromethoxy)-3-fluorophenyl)-1H-pyrazolo[3,4-d]pyrimidin-1-yl)ethyl)-5-fluoro-3-(3-fluorophenyl)-4H-chromen-4-one] |
| 75 to 100 | 25 to 50 | 50 to 75 | 25 to 50 | – | – | – | – | CC(c1oc2cccc(F)c2c(=O)c1-c1cccc(F)c1)n1nc(-c2ccc(OC3CCOCC3)c(F)c2)c2c(N)ncnc21 (stereo not drawn) [Example 19, 2-(1-(4-amino-3-(3-fluoro-4-(tetrahydro-2H-pyran-4-yloxy)phenyl)-1H-pyrazolo[3,4-d]pyrimidin-1-yl)ethyl)-5-fluoro-3-(3-fluorophenyl)-4H-chromen-4-one] |
| 0 to 25 | 0 to 25 | 75 to 100 | 25 to 50 | – | – | – | 50 to 100 | CC(C)c1n[nH]c2cc(-c3nn(C(C)c4oc5cccc(F)c5c(=O)c4-c4cccc(F)c4)c4ncnc(N)c34)ccc12 (stereo not drawn) [Example 20, 2-(1-(4-amino-3-(3-isopropyl-1H-indazol-6-yl)-1H-pyrazolo[3,4-d]pyrimidin-1-yl)ethyl)-5-fluoro-3-(3-fluorophenyl)-4H-chromen-4-one] |
| 25 to 50 | 25 to 50 | 75 to 100 | 0 to 25 | – | – | – | – | CC(c1oc2cccc(F)c2c(=O)c1-c1cccc(F)c1)n1nc(-c2ccc(NCCO)c(F)c2)c2c(N)ncnc21 (stereo not drawn) [Example 22, 2-(1-(4-amino-3-(3-fluoro-4-(2-hydroxyethylamino)phenyl)-1H-pyrazolo[3,4-d]pyrimidin-1-yl)ethyl)-5-fluoro-3-(3-fluorophenyl)-4H-chromen-4-one] |
| 75 to 100 | 0 to 25 | 75 to 100 | 25 to 50 | ≤ 50 | – | – | 50 to 100 | CC(C)Nc1ccc(-c2nn(C(C)c3oc4cccc(F)c4c(=O)c3-c3cccc(F)c3)c3ncnc(N)c23)cc1F (stereo not drawn) [Example 23, 2-(1-(4-amino-3-(3-fluoro-4-(isopropylamino)phenyl)-1H-pyrazolo[3,4-d]pyrimidin-1-yl)ethyl)-5-fluoro-3-(3-fluorophenyl)-4H-chromen-4-one] |
| 50 to 75 | 0 to 25 | 25 to 50 | 25 to 50 | – | – | – | – | CC(c1oc2cccc(F)c2c(=O)c1-c1cccc(F)c1)n1nc(-c2ccc(N3CCN(C)CC3)c(F)c2)c2c(N)ncnc21 (stereo not drawn) [Example 27, 2-(1-(4-amino-3-(3-fluoro-4-(4-methylpiperazin-1-yl)phenyl)-1H-pyrazolo[3,4-d]pyrimidin-1-yl)ethyl)-5-fluoro-3-(3-fluorophenyl)-4H-chromen-4-one] |
| 50 to 75 | 25 to 50 | 50 to 75 | 25 to 50 | – | – | – | – | CC(c1oc2cccc(F)c2c(=O)c1-c1ccc(F)cc1)n1nc(-c2ccc(OC(F)F)c(F)c2)c2c(N)ncnc21 (stereo not drawn) [Example 31, 2-(1-(4-amino-3-(4-(difluoromethoxy)-3-fluorophenyl)-1H-pyrazolo[3,4-d]pyrimidin-1-yl)ethyl)-5-fluoro-3-(4-fluorophenyl)-4H-chromen-4-one] |
| 50 to 75 | – | 0 to 25 | – | – | D (D=0 to 25%) | B (B=>50 to 75%) | – | CC(c1oc2cccc(F)c2c(=O)c1-c1ccccc1)n1nc(-c2ccc(OC(F)F)c(F)c2)c2c(N)ncnc21 (stereo not drawn) [Example 32, 2-(1-(4-amino-3-(4-(difluoromethoxy)-3-fluorophenyl)-1H-pyrazolo[3,4-d]pyrimidin-1-yl)ethyl)-5-fluoro-3-phenyl-4H-chromen-4-one] |

More lines, now with the values behind:

| SMILES | inhibition at 0.3 µM (PI3kγ) [%] | inhibition at 1 µM (PI3kα) [%] | inhibition at 0.3 µM (PI3kδ) [%] | inhibition at 1 µM (PI3kβ) [%] | IC50 (PI3kγ) [nM] | % inhibition (PI3kα) 1 uM (PI3kα) | % inhibition (PI3kβ) 1 uM (PI3kβ) | IC50 (PI3kδ) [nM] |
| --- | --- | --- | --- | --- | --- | --- | --- | --- |
| CC(c1oc2cccc(F)c2c(=O)c1-c1cccc(F)c1)n1cnc2c(N)ncnc21 (stereo not drawn) [Example 11, 2-(1-(6-amino-9H-purin-9-yl)ethyl)-5-fluoro-3-(3-fluorophenyl)-4H-chromen-4-one] | 25 to 50 | 50 to 75 | 50 to 75 | 50 to 75 | – | – | – | – |
| CC(c1oc2cccc(F)c2c(=O)c1-c1cccc(F)c1)n1ncc2c(N)ncnc21 (stereo not drawn) [Example 16, 2-(1-(4-amino-1H-pyrazolo[3,4-d]pyrimidin-1-yl)ethyl)-5-fluoro-3-(3-fluorophenyl)-4H-chromen-4-one] | 0 to 25 | 25 to 50 | 75 to 100 | 0 to 25 | – | – | – | 50 to 100 |
| CC(C)Oc1ccc(-c2nn(C(C)c3oc4cccc(F)c4c(=O)c3-c3cn[nH]c3)c3ncnc(N)c23)cc1F (stereo not drawn) [Example 18, 2-(1-(4-amino-3-(3-fluoro-4-isopropoxyphenyl)-1H-pyrazolo[3,4-d]pyrimidin-1-yl)ethyl)-5-fluoro-3-(1H-pyrazol-4-yl)-4H-chromen-4-one] | 50 to 75 | 0 to 25 | 75 to 100 | 0 to 25 | – | – | – | 50 to 100 |
| CC(c1oc2cccc(F)c2c(=O)c1-c1cccc(F)c1)n1ncc2c(N(C)C)ncnc21 (stereo not drawn) [Example 28, 2-(1-(4-(dimethylamino)-1H-pyrazolo[3,4-d]pyrimidin-1-yl)ethyl)-5-fluoro-3-(3-fluorophenyl)-4H-chromen-4-one] | 50 to 75 | 0 to 25 | 50 to 75 | 25 to 50 | – | – | – | – |
| CC(c1oc2cccc(F)c2c(=O)c1-c1ccccc1)n1ncc2c(N)ncnc21 (stereo not drawn) [Example 29, 2-(1-(4-amino-1H-pyrazolo[3,4-d]pyrimidin-1-yl)ethyl)-5-fluoro-3-phenyl-4H-chromen-4-one] | 50 to 75 | 0 to 25 | 25 to 50 | 25 to 50 | – | – | – | – |
| CC(c1oc2cccc(F)c2c(=O)c1-c1ccc(F)cc1)n1ncc2c(N)ncnc21 (stereo not drawn) [Example 30, 2-(1-(4-amino-1H-pyrazolo[3,4-d]pyrimidin-1-yl)ethyl)-5-fluoro-3-(4-fluorophenyl)-4H-chromen-4-one] | 0 to 25 | 25 to 50 | 25 to 50 | 0 to 25 | – | – | – | – |
| Cc1nn(C(C)c2oc3cccc(F)c3c(=O)c2-c2cccc(F)c2)c2ncnc(N)c12 (stereo not drawn) [Example 33, 2-(1-(4-amino-3-methyl-1H-pyrazolo[3,4-d]pyrimidin-1-yl)ethyl)-5-fluoro-3-(3-fluorophenyl)-4H-chromen-4-one] | 50 to 75 | 0 to 25 | 50 to 75 | 25 to 50 | – | – | – | – |
